Assay results published in paper PMC6149898, “GPCR Modulation of Thieno[2,3-b]pyridine Anti-Proliferative Agents” (Molecules : A Journal of Synthetic Chemistry and Natural …, 2017).

Experiments:
CALCRL-RAMP3 = target: T1, CALCRL-RAMP3 (Homo sapiens, UniProt O60896+Q16602); experiment: gpcrMAX PathHunter beta-arrestin; assay type: cell-based
T1 construct: ProLink (beta-galactosidase enzyme-donor fragment)
Protocol: (§1) complementation (EFC) technology. […]
(§2) challenge at the EC80 concentration. […]
(§3) minutes. Vehicle concentration was 1%. […]
(§4) room temperature for 90 or 180 minutes. […]
(§5) instrument for chemiluminescent signal detection.
(§6) 11 GPCR MAX dose response, Agonist and Antagonist
(§7) Targets (60 Data points each): i) CALCRL‐RAMP3‐Antagonist
(§8) 180 minutes. Vehicle concentration was 1%. […]
(§9) hours. Vehicle concentration was 1%. Extended incubation is typically required to observe an inverse agonist response in the PathHunter arrestin assay.
(§10) Positive Allosteric Modulation Format
(§11) 1. For allosteric determination, cells were pre-incubated with sample followed by agonist induction at the EC20 concentration. […]
(§12) temperature for 90 or 180 minutes.
(§13) Antagonist/Negative Allosteric Modulation Format
(§14) 1. Compound activity was analyzed using CBIS data analysis suite (ChemInnovation, CA).

CXCR4 = target: T2, CXCR4 (Homo sapiens, UniProt P61073); experiment: gpcrMAX PathHunter beta-arrestin; assay type: cell-based
T2 construct: ProLink (beta-galactosidase enzyme-donor fragment)
Protocol: as §1, §2, §3, §4, §5, §6, §7, §8, §9, §10, §11, §12, §13, §14

GPR35 = target: T3, GPR35 (Homo sapiens, UniProt Q9HC97); experiment: gpcrMAX PathHunter beta-arrestin; assay type: cell-based
T3 construct: ProLink (beta-galactosidase enzyme-donor fragment)
Protocol: as §1, §2, §3, §4, §5, §6, §7, §8, §9, §10, §11, §12, §13, §14

HTR1B = target: T4, HTR1B (Homo sapiens, UniProt P28222); experiment: gpcrMAX PathHunter beta-arrestin; assay type: cell-based
T4 construct: ProLink (beta-galactosidase enzyme-donor fragment)
Protocol: as §1, §2, §3, §4, §5, §6, §7, §8, §9, §10, §11, §12, §13, §14

NPSR1B = target: T5, NPSR1B (Homo sapiens, UniProt Q6W5P4); experiment: gpcrMAX PathHunter beta-arrestin; assay type: cell-based
T5 construct: ProLink (beta-galactosidase enzyme-donor fragment)
Protocol: as §1, §2, §3, §4, §5, §6, §7, §8, §9, §10, §11, §12, §13, §14

PRLHR = target: T6, PRLHR (Homo sapiens, UniProt P49683); experiment: gpcrMAX PathHunter beta-arrestin; assay type: cell-based
T6 construct: ProLink (beta-galactosidase enzyme-donor fragment)
Protocol: as §1, §2, §3, §4, §5, §6, §7, §8, §9, §10, §11, §12, §13, §14

CO:COLO 205 = system: CO:COLO 205; design: method as in earlier work; conditions: NCI-60 panel; ref [4],[5],[6],[7]; cited from earlier work
CO:HCT-15 = system: CO:HCT-15; design: method as in earlier work; conditions: NCI-60 panel; ref [4],[5],[6],[7]; cited from earlier work
CO:KM12 = system: CO:KM12; design: method as in earlier work; conditions: NCI-60 panel; ref [4],[5],[6],[7]; cited from earlier work
CO:SW-620 = system: CO:SW-620; design: method as in earlier work; conditions: NCI-60 panel; ref [4],[5],[6],[7]; cited from earlier work
LE:MOLT-4 = system: LE:MOLT-4; design: method as in earlier work; conditions: NCI-60 panel; ref [4],[5],[6],[7]; cited from earlier work
LE:RPMI-8226 = system: LE:RPMI-8226; design: method as in earlier work; conditions: NCI-60 panel; ref [4],[5],[6],[7]; cited from earlier work
ME:SK-MEL-2 = system: ME:SK-MEL-2; design: method as in earlier work; conditions: NCI-60 panel; ref [4],[5],[6],[7]; cited from earlier work
ME:SK-MEL-28 = system: ME:SK-MEL-28; design: method as in earlier work; conditions: NCI-60 panel; ref [4],[5],[6],[7]; cited from earlier work
ME:UACC-62 = system: ME:UACC-62; design: method as in earlier work; conditions: NCI-60 panel; ref [4],[5],[6],[7]; cited from earlier work
LC:A549/ATCC = system: LC:A549/ATCC; design: method as in earlier work; conditions: NCI-60 panel; ref [4],[5],[6],[7]; cited from earlier work
OV:IGROV1 = system: OV:IGROV1; design: method as in earlier work; conditions: NCI-60 panel; ref [4],[5],[6],[7]; cited from earlier work
PR:DU-145 = system: PR:DU-145; design: method as in earlier work; conditions: NCI-60 panel; ref [4],[5],[6],[7]; cited from earlier work
RE:786-0 = system: RE:786-0; design: method as in earlier work; conditions: NCI-60 panel; ref [4],[5],[6],[7]; cited from earlier work
ADORA3 = ADORA3 (Homo sapiens, UniProt P0DMS8); experiment: gpcrMAX PathHunter beta-arrestin
ADRB2 = ADRB2 (Homo sapiens, UniProt P07550); experiment: gpcrMAX PathHunter beta-arrestin
AVPR1B = AVPR1B (Homo sapiens, UniProt P47901); experiment: gpcrMAX PathHunter beta-arrestin
C3AR1 = C3AR1 (Homo sapiens, UniProt Q16581); experiment: gpcrMAX PathHunter beta-arrestin
CCKAR = CCKAR (Homo sapiens, UniProt P32238); experiment: gpcrMAX PathHunter beta-arrestin
CCR6 = CCR6 (Homo sapiens, UniProt P51684); experiment: gpcrMAX PathHunter beta-arrestin
CRTH2 = CRTH2 (Homo sapiens, UniProt Q9Y5Y4); experiment: gpcrMAX PathHunter beta-arrestin
FFAR1 = FFAR1 (Homo sapiens, UniProt O14842); experiment: gpcrMAX PathHunter beta-arrestin
GPR1 = GPR1 (Homo sapiens, UniProt P46091); experiment: gpcrMAX PathHunter beta-arrestin
HRH3 = HRH3 (Homo sapiens, UniProt Q9Y5N1); experiment: gpcrMAX PathHunter beta-arrestin
HRH4 = HRH4 (Homo sapiens, UniProt Q9H3N8); experiment: gpcrMAX PathHunter beta-arrestin
HTR1F = HTR1F (Homo sapiens, UniProt P30939); experiment: gpcrMAX PathHunter beta-arrestin
LHCGR = LHCGR (Homo sapiens, UniProt P22888); experiment: gpcrMAX PathHunter beta-arrestin
MC1R = MC1R (Homo sapiens, UniProt Q01726); experiment: gpcrMAX PathHunter beta-arrestin
MC5R = MC5R (Homo sapiens, UniProt P33032); experiment: gpcrMAX PathHunter beta-arrestin
OPRK1 = OPRK1 (Homo sapiens, UniProt P41145); experiment: gpcrMAX PathHunter beta-arrestin
PTGER4 = PTGER4 (Homo sapiens, UniProt P35408); experiment: gpcrMAX PathHunter beta-arrestin
[1] = antagonist format, dose response

T3 sequence (Q9HC97 whole entry, the tested form may be a part): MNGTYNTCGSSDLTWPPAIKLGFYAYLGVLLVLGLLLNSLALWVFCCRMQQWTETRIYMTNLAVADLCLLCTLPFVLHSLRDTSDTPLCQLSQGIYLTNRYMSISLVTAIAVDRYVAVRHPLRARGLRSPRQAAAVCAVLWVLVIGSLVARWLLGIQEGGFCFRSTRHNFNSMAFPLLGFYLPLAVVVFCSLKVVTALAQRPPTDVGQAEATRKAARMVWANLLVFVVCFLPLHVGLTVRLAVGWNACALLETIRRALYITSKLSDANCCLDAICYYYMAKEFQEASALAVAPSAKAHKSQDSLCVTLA
T6 sequence (P49683 whole entry, the tested form may be a part): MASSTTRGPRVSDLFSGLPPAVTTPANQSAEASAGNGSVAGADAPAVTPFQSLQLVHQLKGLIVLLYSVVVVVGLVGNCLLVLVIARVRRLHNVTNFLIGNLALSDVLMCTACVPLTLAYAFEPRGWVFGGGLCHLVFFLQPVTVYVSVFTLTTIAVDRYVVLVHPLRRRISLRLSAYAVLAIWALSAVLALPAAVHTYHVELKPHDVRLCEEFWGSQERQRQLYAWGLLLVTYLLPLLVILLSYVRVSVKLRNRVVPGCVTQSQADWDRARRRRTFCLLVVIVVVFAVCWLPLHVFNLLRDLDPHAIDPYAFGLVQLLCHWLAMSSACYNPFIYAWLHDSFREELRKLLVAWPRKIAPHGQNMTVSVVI
T5 sequence (Q6W5P4 1-377 isoform Q6W5P4-4): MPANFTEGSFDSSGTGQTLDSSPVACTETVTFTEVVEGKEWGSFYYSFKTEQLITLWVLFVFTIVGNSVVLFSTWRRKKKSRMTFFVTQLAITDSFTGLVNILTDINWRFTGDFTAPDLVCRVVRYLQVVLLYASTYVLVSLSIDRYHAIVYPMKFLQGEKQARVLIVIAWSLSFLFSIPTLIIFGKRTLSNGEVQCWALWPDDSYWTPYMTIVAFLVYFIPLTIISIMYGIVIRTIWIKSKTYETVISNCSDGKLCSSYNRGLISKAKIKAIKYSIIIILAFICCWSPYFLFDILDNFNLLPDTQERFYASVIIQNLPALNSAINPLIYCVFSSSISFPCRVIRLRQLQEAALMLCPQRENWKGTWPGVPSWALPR
T1 sequence (Q16602 23-461): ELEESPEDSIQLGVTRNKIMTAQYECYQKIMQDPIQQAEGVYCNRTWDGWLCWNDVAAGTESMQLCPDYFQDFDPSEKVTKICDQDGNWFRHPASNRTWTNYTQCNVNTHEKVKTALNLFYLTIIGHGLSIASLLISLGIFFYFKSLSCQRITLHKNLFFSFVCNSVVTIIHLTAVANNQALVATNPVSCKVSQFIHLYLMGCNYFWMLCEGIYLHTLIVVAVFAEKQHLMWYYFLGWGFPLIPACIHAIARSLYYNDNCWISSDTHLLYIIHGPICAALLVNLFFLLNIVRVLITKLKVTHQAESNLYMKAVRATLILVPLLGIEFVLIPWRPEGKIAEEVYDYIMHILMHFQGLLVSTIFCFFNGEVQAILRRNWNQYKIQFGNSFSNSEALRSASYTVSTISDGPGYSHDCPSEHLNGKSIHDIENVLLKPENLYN
T1 sequence (O60896 24-148 partner): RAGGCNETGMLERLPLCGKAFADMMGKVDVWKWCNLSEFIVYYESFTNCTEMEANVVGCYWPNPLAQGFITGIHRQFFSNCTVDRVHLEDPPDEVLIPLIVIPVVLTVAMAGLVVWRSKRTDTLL
T2 sequence (P61073 whole entry, the tested form may be a part): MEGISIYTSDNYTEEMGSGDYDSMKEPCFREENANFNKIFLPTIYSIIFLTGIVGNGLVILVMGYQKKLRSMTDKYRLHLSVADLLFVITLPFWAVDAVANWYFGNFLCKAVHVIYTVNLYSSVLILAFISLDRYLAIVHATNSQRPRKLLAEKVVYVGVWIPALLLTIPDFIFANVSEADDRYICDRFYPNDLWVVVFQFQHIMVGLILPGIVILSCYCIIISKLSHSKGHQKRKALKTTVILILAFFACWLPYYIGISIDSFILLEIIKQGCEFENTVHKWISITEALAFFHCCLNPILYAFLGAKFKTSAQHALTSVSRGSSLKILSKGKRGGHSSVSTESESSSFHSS
T4 sequence (P28222 whole entry, the tested form may be a part): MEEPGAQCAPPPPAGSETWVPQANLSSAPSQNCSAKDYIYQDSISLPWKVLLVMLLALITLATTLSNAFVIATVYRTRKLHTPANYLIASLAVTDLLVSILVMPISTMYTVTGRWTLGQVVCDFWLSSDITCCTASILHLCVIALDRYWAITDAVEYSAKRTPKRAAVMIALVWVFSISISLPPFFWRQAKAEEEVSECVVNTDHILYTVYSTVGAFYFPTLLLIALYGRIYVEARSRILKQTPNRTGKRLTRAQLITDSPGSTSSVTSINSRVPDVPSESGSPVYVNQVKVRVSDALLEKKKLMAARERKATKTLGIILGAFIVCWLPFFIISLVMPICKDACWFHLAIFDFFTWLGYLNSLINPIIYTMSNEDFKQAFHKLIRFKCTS
Sequence of HTR1F (P30939 whole entry): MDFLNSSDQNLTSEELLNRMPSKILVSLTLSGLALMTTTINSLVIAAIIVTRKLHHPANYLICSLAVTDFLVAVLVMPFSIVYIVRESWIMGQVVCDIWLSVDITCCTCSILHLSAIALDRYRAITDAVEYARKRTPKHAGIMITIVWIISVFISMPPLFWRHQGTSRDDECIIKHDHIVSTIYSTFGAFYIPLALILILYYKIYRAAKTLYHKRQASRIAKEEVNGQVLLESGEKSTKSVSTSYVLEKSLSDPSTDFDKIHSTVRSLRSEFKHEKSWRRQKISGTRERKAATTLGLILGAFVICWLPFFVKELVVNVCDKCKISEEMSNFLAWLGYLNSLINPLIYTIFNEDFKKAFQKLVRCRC
Sequence of MC1R (Q01726 whole entry): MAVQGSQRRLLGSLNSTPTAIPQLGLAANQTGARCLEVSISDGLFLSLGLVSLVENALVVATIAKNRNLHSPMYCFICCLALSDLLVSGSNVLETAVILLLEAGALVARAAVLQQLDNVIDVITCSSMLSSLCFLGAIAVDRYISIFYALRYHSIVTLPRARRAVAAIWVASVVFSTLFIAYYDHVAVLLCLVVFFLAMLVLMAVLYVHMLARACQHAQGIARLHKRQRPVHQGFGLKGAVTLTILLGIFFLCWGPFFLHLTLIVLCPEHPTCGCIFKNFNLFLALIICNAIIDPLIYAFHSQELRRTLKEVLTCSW
Sequence of C3AR1 (Q16581 whole entry): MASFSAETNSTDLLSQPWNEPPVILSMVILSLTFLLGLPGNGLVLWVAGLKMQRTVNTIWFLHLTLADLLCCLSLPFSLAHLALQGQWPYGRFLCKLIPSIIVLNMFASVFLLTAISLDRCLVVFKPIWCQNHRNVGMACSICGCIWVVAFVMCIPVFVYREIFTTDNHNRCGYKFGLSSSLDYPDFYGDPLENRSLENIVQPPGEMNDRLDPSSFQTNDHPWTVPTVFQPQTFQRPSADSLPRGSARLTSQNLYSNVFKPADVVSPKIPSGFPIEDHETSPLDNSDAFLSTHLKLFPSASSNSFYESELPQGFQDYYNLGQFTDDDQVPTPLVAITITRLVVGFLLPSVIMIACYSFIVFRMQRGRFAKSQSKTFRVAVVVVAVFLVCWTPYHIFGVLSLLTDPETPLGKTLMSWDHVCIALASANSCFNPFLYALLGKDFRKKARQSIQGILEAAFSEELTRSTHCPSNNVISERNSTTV
Sequence of LHCGR (P22888 27-699): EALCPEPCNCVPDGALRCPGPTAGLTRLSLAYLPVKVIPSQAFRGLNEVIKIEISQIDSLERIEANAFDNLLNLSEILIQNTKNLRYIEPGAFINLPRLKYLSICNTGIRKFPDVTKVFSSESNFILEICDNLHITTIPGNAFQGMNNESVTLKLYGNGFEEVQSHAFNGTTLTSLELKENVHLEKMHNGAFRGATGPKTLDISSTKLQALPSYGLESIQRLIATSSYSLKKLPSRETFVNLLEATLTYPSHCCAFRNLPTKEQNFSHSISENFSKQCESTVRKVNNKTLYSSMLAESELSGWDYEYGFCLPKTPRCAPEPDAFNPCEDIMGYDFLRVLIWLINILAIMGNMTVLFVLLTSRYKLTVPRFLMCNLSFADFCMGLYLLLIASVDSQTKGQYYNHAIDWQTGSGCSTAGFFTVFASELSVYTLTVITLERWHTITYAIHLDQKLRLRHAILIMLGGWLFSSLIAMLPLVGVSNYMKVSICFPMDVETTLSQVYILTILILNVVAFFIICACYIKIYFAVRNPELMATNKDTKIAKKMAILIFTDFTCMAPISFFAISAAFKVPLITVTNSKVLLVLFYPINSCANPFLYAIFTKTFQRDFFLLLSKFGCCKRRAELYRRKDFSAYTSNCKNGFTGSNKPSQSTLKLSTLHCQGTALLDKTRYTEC
Sequence of MC5R (P33032 whole entry): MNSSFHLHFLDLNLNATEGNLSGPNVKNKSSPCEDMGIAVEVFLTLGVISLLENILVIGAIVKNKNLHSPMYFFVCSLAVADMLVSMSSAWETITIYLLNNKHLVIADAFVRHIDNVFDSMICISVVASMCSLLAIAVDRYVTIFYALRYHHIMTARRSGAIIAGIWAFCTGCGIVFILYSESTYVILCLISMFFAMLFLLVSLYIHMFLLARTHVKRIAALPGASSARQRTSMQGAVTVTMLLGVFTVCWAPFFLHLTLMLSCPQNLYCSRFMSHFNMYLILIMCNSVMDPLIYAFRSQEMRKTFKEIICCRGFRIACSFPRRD
Sequence of OPRK1 (P41145 whole entry): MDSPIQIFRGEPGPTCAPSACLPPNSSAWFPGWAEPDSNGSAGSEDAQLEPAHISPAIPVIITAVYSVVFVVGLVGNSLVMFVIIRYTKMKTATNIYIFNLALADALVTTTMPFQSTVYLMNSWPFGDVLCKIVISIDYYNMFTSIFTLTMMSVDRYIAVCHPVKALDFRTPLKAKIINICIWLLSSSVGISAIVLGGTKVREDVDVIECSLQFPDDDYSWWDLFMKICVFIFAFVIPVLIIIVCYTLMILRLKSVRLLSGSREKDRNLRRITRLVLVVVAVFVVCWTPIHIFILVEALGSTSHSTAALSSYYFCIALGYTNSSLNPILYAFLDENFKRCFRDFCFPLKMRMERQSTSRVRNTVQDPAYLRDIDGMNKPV

Cc1c(Cl)cccc1NC(=O)c1sc2nc3c(cc2c1N)C(=O)CCC3 [Compound 1]
IC50 (CALCRL-RAMP3; [1]): 11900 nM | inhibition at 10 µM (CALCRL-RAMP3; antagonist mode, 10 µM): 63% | IC50 (CXCR4; [1]): 6900 nM | inhibition at 10 µM (CXCR4; antagonist mode, 10 µM): 39% | EC50 (GPR35; agonist format, dose response): 7500 nM | inhibition at 10 µM (GPR35; antagonist mode, 10 µM): -12% | IC50 (HTR1B; [1]): > 50000 nM | inhibition at 10 µM (HTR1B; antagonist mode, 10 µM): 42% | IC50 (NPSR1B; [1]): 1000 nM | inhibition at 10 µM (NPSR1B; antagonist mode, 10 µM): 59% | IC50 (PRLHR; [1]): 9300 nM | inhibition at 10 µM (PRLHR; antagonist mode, 10 µM): 44% | GI50 (CO:COLO 205): 51.8 nM | GI50 (CO:HCT-15): 70.5 nM | GI50 (CO:KM12): 67.3 nM | GI50 (CO:SW-620): 48.6 nM | GI50 (LE:MOLT-4): 476 nM | GI50 (LE:RPMI-8226): 256 nM | GI50 (ME:SK-MEL-2): 47.7 nM | GI50 (ME:SK-MEL-28): 224 nM | GI50 (ME:UACC-62): 50.3 nM | GI50 (LC:A549/ATCC): 63.1 nM | GI50 (OV:IGROV1): 196 nM | GI50 (PR:DU-145): 152 nM | GI50 (RE:786-0): 103 nM | inhibition at 10 µM (ADORA3): 25% | inhibition at 10 µM (ADRB2): -46% | inhibition at 10 µM (AVPR1B): 3% | inhibition at 10 µM (C3AR1): -3% | inhibition at 10 µM (CCKAR): 6% | inhibition at 10 µM (CCR6): -6% | inhibition at 10 µM (CRTH2): 13% | inhibition at 10 µM (FFAR1): -59% | inhibition at 10 µM (GPR1): 7% | inhibition at 10 µM (HRH3): -14% | inhibition at 10 µM (HRH4): 32% | inhibition at 10 µM (HTR1F): -21% | inhibition at 10 µM (LHCGR): -2% | inhibition at 10 µM (MC1R): -16% | inhibition at 10 µM (MC5R): 20% | inhibition at 10 µM (OPRK1): -162% | inhibition at 10 µM (PTGER4): 7%
